Assay results published in the supplement of paper PMC10307832.

Legend:
Assay in all cases: relative viability (nuclei count vs DMSO), 5 days (fraction); higher = more cells survive
Ibrutinib + Trametinib = compound: C=CC(=O)N1CCC[C@@H](n2nc(-c3ccc(Oc4ccccc4)cc3)c3c(N)ncnc32)C1 [Ibrutinib] + CC(=O)Nc1cccc(-n2c(=O)n(C3CC3)c(=O)c3c(Nc4ccc(I)cc4F)n(C)c(=O)c(C)c32)c1 [Trametinib] (partner 0.02 µM)
Summary of the method: (§1)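 Relative viability divides the nuclei count in treated wells by that in vehicle wells. Lung cancer cell lines were seeded in 1536-well plates, dosed by pin tool the next day, and fixed and stained after 5 days in one step with final 0.05% Triton X-100, 1% formaldehyde and 1 ug/ml Hoechst. Dosing was a single drug or a fixed anchor-drug dose plus five library-drug doses (not always all listed) in √10 steps, and values are medians of duplicate plates imaged at 4×.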

Ibrutinib + Crizotinib = compound: C=CC(=O)N1CCC[C@@H](n2nc(-c3ccc(Oc4ccccc4)cc3)c3c(N)ncnc32)C1 [Ibrutinib] + C[C@@H](Oc1cc(-c2cnn(C3CCNCC3)c2)cnc1N)c1c(Cl)ccc(F)c1Cl [Crizotinib] (partner 1 µM)
Summary of the method: as §1

BMX-IN-1 + Crizotinib = compound: C=CC(=O)Nc1cc(-n2c(=O)ccc3cnc4ccc(-c5ccc(NS(C)(=O)=O)cc5)cc4c32)ccc1C [BMX-IN-1] + C[C@@H](Oc1cc(-c2cnn(C3CCNCC3)c2)cnc1N)c1c(Cl)ccc(F)c1Cl [Crizotinib] (partner 1 µM)
Summary of the method: as §1

BMX-IN-1 + Decitabine = compound: C=CC(=O)Nc1cc(-n2c(=O)ccc3cnc4ccc(-c5ccc(NS(C)(=O)=O)cc5)cc4c32)ccc1C [BMX-IN-1] + Nc1ncn([C@H]2C[C@H](O)[C@@H](CO)O2)c(=O)n1 [Decitabine] (partner 2 µM)
Summary of the method: as §1

Row | Cell Line | relative viability (Ibrutinib + Trametinib; first compound 0.005 µM) | relative viability (Ibrutinib + Trametinib; first compound 0.01581 µM) | relative viability (Ibrutinib + Trametinib; first compound 0.05 µM) | relative viability (Ibrutinib + Trametinib; first compound 0.1581 µM) | relative viability (Ibrutinib + Trametinib; first compound 0.5 µM) | relative viability (Ibrutinib + Crizotinib; first compound 0.005 µM) | relative viability (Ibrutinib + Crizotinib; first compound 0.01581 µM) | relative viability (Ibrutinib + Crizotinib; first compound 0.05 µM) | relative viability (Ibrutinib + Crizotinib; first compound 0.1581 µM) | relative viability (Ibrutinib + Crizotinib; first compound 0.5 µM) | relative viability (BMX-IN-1 + Crizotinib; first compound 0.02 µM) | relative viability (BMX-IN-1 + Crizotinib; first compound 0.2 µM) | relative viability (BMX-IN-1 + Crizotinib; first compound 0.6325 µM) | relative viability (BMX-IN-1 + Crizotinib; first compound 2 µM) | relative viability (BMX-IN-1 + Decitabine; first compound 0.02 µM) | relative viability (BMX-IN-1 + Decitabine; first compound 0.2 µM) | relative viability (BMX-IN-1 + Decitabine; first compound 0.6325 µM) | relative viability (BMX-IN-1 + Decitabine; first compound 2 µM)
1 | HCC-44 | 1.04 | 1.04 | 0.992 | 1.19 | 1.06 | 0.813 | 0.782 | 0.801 | 0.866 | 0.743 | 0.907 | 0.834 | 0.944 | 0.889 | 0.988 | 0.969 | 1.01 | 0.981
2 | HCC-78 | – | 0.569 | 0.622 | 0.698 | 0.706 | 0.347 | 0.328 | 0.289 | 0.335 | 0.247 | 0.379 | 0.347 | 0.335 | 0.405 | 0.743 | 0.766 | 0.789 | 0.802
3 | HCC-366 | 0.34 | 0.366 | 0.317 | 0.394 | 0.391 | 0.623 | 0.525 | 0.506 | 0.45 | 0.514 | 0.582 | 1.01 | 0.586 | 0.703 | 0.356 | 0.378 | 0.416 | 0.39
4 | HCC-827 | 0.49 | 0.489 | 0.416 | 0.509 | 0.196 | 0.89 | 0.923 | 0.927 | 0.94 | 0.184 | 0.972 | 0.939 | 0.939 | 0.97 | 0.27 | 0.31 | 0.342 | 0.292
5 | HOP-62 | 0.367 | 0.331 | 0.374 | 0.424 | 0.385 | 0.988 | 0.947 | 1 | 0.948 | – | 0.76 | 1.04 | 0.98 | 0.959 | 0.214 | 0.255 | 0.26 | 0.237
6 | IA-LM | – | – | – | – | – | 0.75 | 0.8 | 1.11 | 1 | 0.947 | 0.875 | 0.865 | 0.99 | 0.772 | – | – | – | –
7 | LC-2-ad | 0.914 | 0.907 | – | 0.929 | 0.863 | – | 0.449 | 0.546 | 0.476 | 0.419 | 0.374 | 0.518 | 0.484 | 0.494 | 0.836 | 0.938 | 0.889 | 0.733
8 | LCLC-97TM1 | 0.192 | 0.172 | 0.202 | 0.192 | 0.155 | 0.365 | 0.369 | – | 0.553 | 0.313 | 0.343 | 0.429 | 0.363 | 0.387 | 0.259 | 0.224 | 0.208 | 0.264
9 | LCLC-103H | 0.677 | 0.645 | 0.716 | 0.739 | 0.605 | 1.06 | 1.03 | 1.02 | 1.06 | 1.04 | 1.19 | 1.05 | 1.07 | 1.07 | 0.795 | 0.782 | 0.714 | 0.689
10 | LK-2 | 0.931 | 0.7 | 0.816 | 0.702 | 0.668 | – | 0.355 | 0.216 | 0.275 | 0.252 | 0.232 | 0.207 | 0.252 | 0.191 | 0.262 | 0.326 | 0.269 | 0.335
11 | NCI-H522 | 0.757 | 0.714 | 0.661 | 0.71 | 0.57 | – | – | – | – | – | – | – | – | – | 0.692 | 0.633 | 0.725 | 0.624
12 | NCI-H1299 | – | – | – | – | – | 1 | 0.897 | 0.957 | 0.977 | 0.965 | 0.798 | 1.03 | 0.97 | 1.01 | – | – | – | –
13 | NCI-H1395 | 0.912 | 1.13 | 1.16 | 1.04 | 1.01 | – | – | – | – | – | – | – | – | – | 0.781 | 0.695 | 0.677 | 0.769
14 | NCI-H1563 | – | – | – | – | – | 0.815 | 0.874 | 0.803 | 0.875 | 0.8 | 0.794 | 0.887 | 0.86 | 0.761 | – | – | – | –
15 | NCI-H1648 | 0.565 | 0.433 | 0.316 | 0.418 | 0.257 | – | – | – | – | – | – | – | – | – | 0.511 | 0.467 | 0.616 | 0.506
16 | NCI-H1703 | – | – | – | – | – | – | – | 0.839 | 0.934 | 0.729 | 0.821 | 0.952 | 0.631 | 0.56 | – | – | – | –
17 | NCI-H1793 | 0.485 | 0.423 | 0.436 | 0.419 | 0.401 | – | – | – | – | – | – | – | – | – | 0.45 | 0.535 | 0.471 | 0.589
18 | NCI-H2228 | 0.379 | 0.488 | 0.412 | 0.55 | 0.298 | 0.4 | 0.359 | 0.36 | 0.569 | 0.359 | 0.52 | 0.354 | 0.417 | 0.495 | – | – | – | –
19 | NCI-H2342 | 0.801 | 0.873 | 0.659 | 0.773 | 0.676 | – | – | – | – | – | – | – | – | – | 0.698 | 0.751 | 0.748 | 0.742
20 | SW 900 | 0.86 | 0.654 | 0.803 | 0.901 | 0.603 | – | – | – | – | – | – | – | – | – | 0.564 | 0.51 | 0.461 | 0.539
